# Measured values as given in patent US8093406B2, “Cyclic sulfones with aminobenzyl substitution useful as BACE inhibitors” (Novartis AG, priority 2008, dated 2012).
# Counter-ions that a name gives are not always drawn.
# Biological target: T1, Human BACE (Homo sapiens, UniProt P56817)
# T1 construct: Recombinant BACE (extracellular domain, expressed in baculovirus and purified using standard methods); made in house
# Experiment: Test 1: Inhibition of Human BACE
# Type: biochemical
# Settings: Test 1; recombinant BACE extracellular domain, acetate buffer pH 4.5, 1 hour incubation at room temperature, fluorescence-quenched APP-derived peptide substrate; read-out: Bace IC50
# Protocol: Test 1: Inhibition of Human BACE
# Recombinant BACE (extracellular domain, expressed in baculovirus and purified using standard methods) at 0.1 to 10 nM concentrations is incubated with the test compound at various concentrations for 1 hour at room temperature in 10 to 100 mM acetate buffer, pH 4.5, containing 0.1% CHAPS. […] IC50 values are calculated from percentage of inhibition of BACE-activity as a function of the test compound concentration.
# T1 sequence (P56817 46-457 limits assumed): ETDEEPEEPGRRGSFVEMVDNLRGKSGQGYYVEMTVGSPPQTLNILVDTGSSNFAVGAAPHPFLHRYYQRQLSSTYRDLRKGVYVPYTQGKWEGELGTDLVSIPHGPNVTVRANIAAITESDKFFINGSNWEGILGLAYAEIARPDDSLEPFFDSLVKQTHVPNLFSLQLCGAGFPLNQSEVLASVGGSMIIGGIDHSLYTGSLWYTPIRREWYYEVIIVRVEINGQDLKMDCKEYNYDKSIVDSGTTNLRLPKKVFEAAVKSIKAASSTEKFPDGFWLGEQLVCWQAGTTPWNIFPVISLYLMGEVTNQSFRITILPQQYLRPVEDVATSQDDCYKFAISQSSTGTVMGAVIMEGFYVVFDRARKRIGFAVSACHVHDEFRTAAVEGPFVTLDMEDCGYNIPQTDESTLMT
row,IC50 [µM],Compound
1,8.4,"CN(C)CCNc1ccc(C[C@@H]2CS(=O)(=O)C[C@H](NCc3cccc(C(C)(C)C)c3)[C@H]2O)cc1F (racemic) [Example 7, (3R*,4S*,5S*)-3-(3-tert-Butyl-benzylamino)-5-[4A2-dimethylamino-ethyl-amino)-3-fluoro-benzyl]-1,1-dioxo-hexahydro-1lambda*6*-thiopyran-4-ol]"
2,0.038,"CCCCNC(=O)c1cc(C[C@@H]2CS(=O)(=O)C[C@H](NCc3cccc(C(C)(C)C)c3)[C@H]2O)ccc1N (racemic) [Example 18, 2-Amino-N-butyl-5-[3S*,4S*,5R*)-5-(3-tert-butyl-benzylamino)-4-hydroxy-1,1-dioxo-hexahydro-1lambda*6*-thiopyran-3-ylmethyl]-benzamide]"
3,1.14,"CCNCc1cc(C[C@@H]2CS(=O)(=O)C[C@H](NCc3cccc(C(C)(C)C)c3)[C@H]2O)cc(F)c1N (relative stereo) [Example 3, (3S*,4S*,5R*)-3-(4-Amino-3-ethylaminomethyl-5-fluoro-benzyl)-5-(3-tert-butyl-benzylamino)-1,1-dioxo-hexahydro-1lambda*6*-thiopyran-4-ol hydrochloride]"
4,0.326,"CC(C)(C)c1cccc(CN[C@H]2CS(=O)(=O)C[C@@H](Cc3cc(F)c(N)c(N4CCCC4=O)c3)[C@@H]2O)c1 (relative stereo) [Example 4, 1-{2-Amino-5-[(3S*,4S*,5R*)-5-(3-tert-butyl-benzylamino)-4-hydroxy-1,1-dioxo-hexahydro-1lambda*6*-thiopyran-3-ylmethyl]-3-fluoro-phenyl}-pyrrolidin-2-one di-trifluoroacetate]"
5,4.7,"CC(C)(C)c1cccc(CN[C@H]2CS(=O)(=O)C[C@@H](Cc3cc(F)c(N)c(N4CCC4=O)c3)[C@@H]2O)c1 (relative stereo) [Example 5, 1 {2-Amino-5-[(3S*,4S*,5R*)-5-(3-tert-butyl-benzylamino)-4-hydroxy-1,1-dioxo-hexahydro-1lambda*6*-thiopyran-3-ylmethyl]-3-fluoro-phenyl}-azetidin-2-one]"
6,0.042,"CCNCC(=O)Nc1c(F)cc(C[C@@H]2CS(=O)(=O)C[C@H](NCc3cccc(C(C)(C)C)c3)[C@H]2O)cc1CC [Example 8, N-{4-[(3S,4S,5R)-5-(3-tert-Butyl-benzylamino)-4-hydroxy-1,1-dioxo-hexahydro-1lambda*6*-thiopyran-3-ylmethyl]-2-ethyl-6-fluoro-phenyl}-2-ethylamino-acetamide dihydrochloride]"
7,0.048,"CCc1cc(C[C@@H]2CS(=O)(=O)C[C@H](NCc3cccc(C(C)(C)C)c3)[C@H]2O)cc(F)c1NC(=O)COC [Example 10, N-{4-[(3S,4S,5R)-5-(3-tert-Butyl-benzylamino)-4-hydroxy-1,1-dioxo-hexa-hydro-1lambda*6*-thiopyran-3-ylmethyl]-2-ethyl-6-fluoro-phenyl}-2-methoxy-acetamide hydrochloride]"
8,0.074,"CN(C)CC(=O)Nc1c(F)cc(C[C@@H]2CS(=O)(=O)C[C@H](NCc3cccc(C(C)(C)C)c3)[C@H]2O)cc1Cl [Example 11, N-{4-[(3S,4S,5R)-5-(3-tert-Butyl-benzylamino)-4-hydroxy-1,1-dioxo-hexa-hydro-1lambda*6*-thiopyran-3-ylmethyl]-2-chloro-6-fluoro-phenyl}-2-dimethylamino-acetamide dihydrochloride]"
9,0.02,CCNCC(=O)Nc1c(F)cc(C[C@@H]2CS(=O)(=O)C[C@H](NCc3cccc(C(C)(C)C)c3)[C@H]2O)cc1Cl [Example 12]
10,0.028,CNCC(=O)Nc1c(F)cc(C[C@@H]2CS(=O)(=O)C[C@H](NCc3cccc(C(C)(C)C)c3)[C@H]2O)cc1Cl [Example 13]
11,0.022,"CC(C)(C)c1cccc(CN[C@H]2CS(=O)(=O)C[C@@H](Cc3cc(F)c(NC(=O)CNC4CC4)c(Cl)c3)[C@@H]2O)c1 [Example 14, N-{4-[(3S,4S,5R)-5-(3-tert-butyl-benzylamino)-4-hydroxy-1,1-dioxo-hexa-hydro-1lambda*6*-thiopyran-3-ylmethyl]-2-chloro-6-fluoro-phenyl}-2-cyclopropylamino-acetamide]"
12,0.05,CC(C)(C)NCC(=O)Nc1c(F)cc(C[C@@H]2CS(=O)(=O)C[C@H](NCc3cccc(C(C)(C)C)c3)[C@H]2O)cc1Cl [Example 15]
13,0.034,CC(C)(C)c1cccc(CN[C@H]2CS(=O)(=O)C[C@@H](Cc3cc(F)c(NC(=O)CN4CCCCC4)c(Cl)c3)[C@@H]2O)c1 [Example 16]
14,0.026,CCNC(=O)c1cc(CC2CS(=O)(=O)CC(NCc3cccc(C(C)(C)C)c3)C2O)ccc1N (stereo not shown) [Example 19]
15,0.151,CCCNC(=O)c1cc(CC2CS(=O)(=O)CC(NCc3cccc(C(C)(C)C)c3)C2O)ccc1N (stereo not shown) [Example 20]
16,0.008,CC(C)(C)c1cccc(CNC2CS(=O)(=O)CC(Cc3ccc(N)c(C(=O)NCC4CC4)c3)C2O)c1 (stereo not shown) [Example 21]
17,0.046,CC(C)(C)c1cccc(CNC2CS(=O)(=O)CC(Cc3ccc(N)c(C(=O)NCCF)c3)C2O)c1 (stereo not shown) [Example 22]
18,0.175,CC(C)(C)c1cccc(CNC2CS(=O)(=O)CC(Cc3ccc(N)c(C(=O)NCC(F)(F)F)c3)C2O)c1 (stereo not shown) [Example 23]
19,0.007,"CN(C)CC(=O)Nc1c(F)cc(C[C@@H]2CS(=O)(=O)C[C@H](NCc3cccc(C(C)(C)C)c3)[C@H]2O)cc1OCC(F)(F)F [Example 26, N-[4-[(3S,4S,5R)-5-(3-tert-Butyl-benzylamino)-4-hydroxy-1,1-dioxo-hexahydro-1lambda*6*-thiopyran-3-ylmethyl]-2-fluoro-6-(2,2,2-trifluoro-ethoxy)-phenyl]-2-dimethylamino-acetamide dihydrochloride]"
20,0.003,CCNCC(=O)Nc1c(F)cc(C[C@@H]2CS(=O)(=O)C[C@H](NCc3cccc(C(C)(C)C)c3)[C@H]2O)cc1OCC(F)(F)F [Example 27]
21,0.007,CC(C)(C)c1cccc(CN[C@H]2CS(=O)(=O)C[C@@H](Cc3cc(F)c(NC(=O)CN4CCC4)c(OCC(F)(F)F)c3)[C@@H]2O)c1 [Example 28]
22,0.005,CC(C)(C)c1cccc(CN[C@H]2CS(=O)(=O)C[C@@H](Cc3cc(F)c(NC(=O)CN4CCCCC4)c(OCC(F)(F)F)c3)[C@@H]2O)c1 [Example 29]
23,0.022,"C[Si](C)(C)c1cccc(CN[C@H]2CS(=O)(=O)C[C@@H](Cc3cc(F)c(N)c(OC(C(F)(F)F)C(F)(F)F)c3)[C@@H]2O)c1 [Example 31, (3S,4S,5R)-3-[4-Amino-3-fluoro-5-(2,2,2-trifluoro-1-trifluoromethyl-ethoxy)-benzyl]-1,1-dioxo-5-(3-trimethylsilanyl-benzylamino)-hexahydro-1lambda*6*-thiopyran-4-ol]"
24,0.003,"CC(C)(C)c1cccc(CN[C@H]2CS(=O)(=O)C[C@@H](Cc3cc(F)c(N)c(O[C@H](CO)C(F)(F)F)c3)[C@@H]2O)c1 [Example 38, (3S,4S,5R)-3-[4-Amino-3-fluoro-5-((R)-2,2,2-trifluoro-1-hydroxymethyl-ethoxy)-benzyl]-5-(3-tert-butyl-benzylamino)-1,1-dioxo-hexahydro-1lambda*6*-thio-pyran-4-ol]"

row,Compound,IC50 [µM]
1,"CC(C)(C)c1cccc(CN[C@H]2CS(=O)(=O)C[C@@H](Cc3cc(F)c(NCCNC4CC4)c(Cl)c3)[C@@H]2O)c1 [Example 17, (3R,4S,5S)-3-(3-tert-Butyl-benzylamino)-5-[3-chloro-4-(2-cyclopropyl-amino-ethylamino)-5-fluoro-benzyl]-1,1-dioxo-hexahydro-1lambda*6*-thiopyran-4-ol hydrochloride]",1.76
